Data: ChEMBL document CHEMBL5505979, “Novel aminothiazoximone-corbelled ethoxycarbonylpyrimidones with antibiofilm activity to conquer Gram-negative bacteria through potential multitargeting effects” (Eur J Med Chem, 2024)
≈ marks a conversion by molar mass, not a printed value. Calls of active or inactive are those of the source. The calls are words filed in the database; no cut-off is given here.

How the values were obtained:
Staphylococcus aureus [1] = test: Anti-bacterial activity against methicillin-resistant Staphylococcus aureus ATCC 43300 assessed as inhibition of bacterial growth; assay type: functional; conditions: Staphylococcus aureus, ATCC 43300; read-out: MIC
Staphylococcus aureus [2] = test: Anti-bacterial activity against Staphylococcus aureus ATCC 29213 assessed as inhibition of bacterial growth; assay type: functional; conditions: Staphylococcus aureus, ATCC 29213; read-out: MIC
Staphylococcus aureus [3] = test: Anti-bacterial activity against Staphylococcus aureus CMCC (B) 26001 assessed as inhibition of bacterial growth; assay type: functional
Pseudomonas aeruginosa = test: Anti-bacterial activity against Pseudomonas aeruginosa ATCC 27853 assessed as inhibition of bacterial growth; assay type: functional; conditions: Pseudomonas aeruginosa, ATCC 27853; read-out: MIC
Acinetobacter baumannii [4] = test: Anti-bacterial activity against Acinetobacter baumannii R674 assessed as inhibition of bacterial growth; assay type: functional
Candida parapsilosis = test: Anti-fungal activity against Candida parapsilosis assessed as inhibition of fungal growth; assay type: functional; conditions: Lodderomyces parapsilosis; read-out: MIC
Acinetobacter baumannii [5] = test: Bactericidal activity against Acinetobacter baumannii assessed as bacterial killing at 1 to 8 times of MIC concentration measured upto 8 hrs by time-kill kinetics assay; assay type: functional, organism-based
Escherichia coli [6] = test: Bactericidal activity against Escherichia coli ATCC 25922 assessed as bacterial killing at 1 to 8 times of MIC concentration measured upto 8 hrs by time-kill kinetics assay; assay type: functional, organism-based
BEAS-2B = test: Cytotoxicity against human BEAS-2B cells assessed as cell viability at 0.064 mmol/L measured after 24 hrs; assay type: toxicity, cell-based; conditions: 64 µM
Acinetobacter baumannii [7] = test: Antibiofilm activity against Acinetobacter baumannii assessed as inhibition rate of bio-film formation at 0.5 times of MIC concentration by Crystal violet assay relative to control; assay type: functional
Acinetobacter baumannii [8] = test: Antibiofilm activity against Acinetobacter baumannii assessed as inhibition rate of bio-film formation at 8 times of MIC concentration by Crystal violet assay relative to control; assay type: functional
Escherichia coli [9] = test: Antibiofilm activity against Escherichia coli ATCC 25922 assessed as inhibition rate of bio-film formation at 8 times of MIC concentration in presence of sodium dodecyl sulfate by Crystal violet assay relative to control; assay type: functional, organism-based
Escherichia coli [10] = test: Antibiofilm activity against Escherichia coli ATCC 25922 assessed as clearance rate of mature biofilm at 8 times of MIC concentration relative to control; assay type: functional
Escherichia coli [11] = test: Antibiofilm activity against Escherichia coli ATCC 25922 assessed as reduction of self-aggregation; assay type: functional, organism-based
Acinetobacter baumannii [12] = test: Reduction of biofilm virulent factors in Acinetobacter baumannii assessed as decrease in hydrophobicity index; assay type: functional, organism-based
Acinetobacter baumannii [13] = test: Reduction of biofilm virulent factors in Acinetobacter baumannii assessed as decrease in extracellular polymeric substances (EPS) by measuring optical density at 490 nm at 1/4 times of MIC concentration by congo red binding assay (reference value: 0.188 to 0.192); assay type: functional
Acinetobacter baumannii [14] = test: Reduction of biofilm virulent factors in Acinetobacter baumannii assessed as decrease in extracellular polymeric substances (EPS) by measuring optical density at 490 nm at 1/2 times of MIC concentration by congo red binding assay (reference value: 0.188 to 0.192); assay type: functional
Acinetobacter baumannii [15] = test: Reduction of biofilm virulent factors in Acinetobacter baumannii assessed as decrease in extracellular polymeric substances (EPS) by measuring optical density at 490 nm at 1 times of MIC concentration by congo red binding assay (reference value: 0.188 to 0.192); assay type: functional
Acinetobacter baumannii [16] = test: Reduction of biofilm virulent factors in Acinetobacter baumannii assessed as decrease in extracellular polymeric substances (EPS) by measuring optical density at 490 nm at 4 times of MIC concentration by congo red binding assay (reference value: 0.188 to 0.192); assay type: functional
Escherichia coli [17] = test: Reduction of biofilm virulent factors in Escherichia coli ATCC 25922 assessed as decrease in extracellular polymeric substances (EPS) by measuring optical density at 490 nm at 1/4 times of MIC concentration by congo red binding assay (reference value: 0.028 to 0.031); assay type: functional
Escherichia coli [18] = test: Reduction of biofilm virulent factors in Escherichia coli ATCC 25922 assessed as decrease in extracellular polymeric substances (EPS) at 4 times of MIC concentration by congo red binding assay relative to control; assay type: functional; design: scale not given: the % may be the effect or the level left
Acinetobacter baumannii [19] = test: Anti-bacterial activity against Acinetobacter baumannii assessed as fractional inhibitory concentration index measured upto 9 hrs in presence of norfloxacin; assay type: functional
Acinetobacter baumannii [20] = test: Anti-bacterial activity against Acinetobacter baumannii assessed as growth inhibition by measuring optical density measured at 4 time of MIC in presence of 1/2 times of MIC of norfloxacin by Checkerboard assay (reference value: 0.152); assay type: functional
Acinetobacter baumannii [21] = test: Anti-bacterial activity against Acinetobacter baumannii assessed as growth inhibition by measuring optical density measured at 1/2 time of MIC in presence of 1/2 times of MIC of norfloxacin by Checkerboard assay (reference value: 0.152); assay type: functional
Acinetobacter baumannii [22] = test: Anti-bacterial activity against Acinetobacter baumannii assessed as growth inhibition by measuring optical density measured at 1/4 time of MIC in presence of 1/8 times of MIC of norfloxacin by Checkerboard assay (reference value: 0.152); assay type: functional
Escherichia coli [23] = test: Anti-bacterial activity against Escherichia coli ATCC 25922 assessed as growth inhibition by measuring optical density measured at 4 time of MIC in presence of 1 times of MIC of norfloxacin by Checkerboard assay (reference value: 0.125); assay type: functional
Escherichia coli [24] = test: Anti-bacterial activity against Escherichia coli ATCC 25922 assessed as growth inhibition by measuring optical density measured at 1 time of MIC in presence of 1/8 times of MIC of norfloxacin by Checkerboard assay (reference value: 0.125); assay type: functional
Escherichia coli [25] = test: Anti-bacterial activity against Escherichia coli ATCC 25922 assessed as growth inhibition by measuring optical density measured at 1/2 time of MIC in presence of 2 times of MIC of norfloxacin by Checkerboard assay (reference value: 0.124); assay type: functional
Escherichia coli [26] = test: Anti-bacterial activity against Escherichia coli ATCC 25922 assessed as growth inhibition by measuring optical density measured at 1/4 time of MIC in presence of 1/2 times of MIC of norfloxacin by Checkerboard assay (reference value: 0.128); assay type: functional
Cell membrane [27] = test: Induction of membrane damage in Escherichia coli ATCC 25922 assessed as increase in fluorescence intensity at 1 to 4 times of MIC concentration measured after 90 mins by DiSC3 fluorescent probe assay; assay type: cell membranes
Cell membrane [28] = test: Induction of physical destruction of cell membrane in Acinetobacter baumannii assessed as leakage of nucleic acid by measuring absorbance of 260 nm at 1/4 to 8 times of MIC concentration; assay type: cell membranes
Cell membrane [29] = test: Induction of physical destruction of cell membrane in Acinetobacter baumannii assessed as leakage of protein at 1/4 to 8 times of MIC concentration by Coomassie blue quantitative assay; assay type: cell membranes
Acinetobacter baumannii [30] = test: Reduction in metabolic activity of Acinetobacter baumannii at 2 times of MIC concentration relative to control; assay type: functional; design: scale not given: the % may be the effect or the level left
Escherichia coli [31] = test: Anti-bacterial activity against Escherichia coli ATCC 25922 assessed as bacterial mortality at 1 to 4 MIC concentration by propidium iodide based fluorescence microscopy relative to control; assay type: functional, organism-based

Work on CCCCc1nc(Cl)c(C2NC(=O)NC(CN3CCN(C(=O)/C(=N/OC)c4csc(N)n4)CC3)=C2C(=O)OCC)[nH]1 (centres undefined) yielded an MIC (Staphylococcus aureus [1]) of 13 µM (≈ 7.91 µg/mL), an MIC (Staphylococcus aureus [2]) of 26 µM (≈ 15.8 µg/mL) and an MIC (Staphylococcus aureus [3]) of 26 µM (≈ 15.8 µg/mL). It also gave an MIC (Pseudomonas aeruginosa) of 26 µM (≈ 15.8 µg/mL), an MIC (Acinetobacter baumannii [4]) of 7 µM (≈ 4.26 µg/mL) and an MIC (Candida parapsilosis) of 422 µM (≈ 257 µg/mL). The Activity (Acinetobacter baumannii [5]) was “Active”, the Activity (Escherichia coli [6]) was “Active” and the Activity (BEAS-2B) was “Non-Toxic”. For the same molecule, the “inhibition (INH)” value (Acinetobacter baumannii [7]) was 23.5%, the “inhibition (INH)” value (Acinetobacter baumannii [8]) was over 70.2% and the Activity (Escherichia coli [9]) was “Active”. The Activity (Escherichia coli [10]) was 37.9%, the Activity (Escherichia coli [11]) was “Dose-Dependent Effect” and the Activity (Acinetobacter baumannii [12]) was “Dose-Dependent Effect”. For the same molecule, the OD (Acinetobacter baumannii [13]) was 0.178, the OD (Acinetobacter baumannii [14]) was 0.173 and the OD (Acinetobacter baumannii [15]) was 0.163. For the same molecule, the OD (Acinetobacter baumannii [16]) was 0.097, the OD (Escherichia coli [17]) was 0.12 and the Activity (Escherichia coli [18]) was 52.3%. For the same molecule, the “fractional inhibitory concentration index (FICI)” value (Acinetobacter baumannii [19]) was 0.75, the OD (Acinetobacter baumannii [20]) was 0.05 and the OD (Acinetobacter baumannii [21]) was 0.107. For the same molecule, the OD (Acinetobacter baumannii [22]) was 0.127, the OD (Escherichia coli [23]) was 0.051 and the OD (Escherichia coli [24]) was 0.121. The OD (Escherichia coli [25]) was 0.051, the OD (Escherichia coli [26]) was 0.125 and the Activity (Cell membrane [27]) was “inactive”. The Activity (Cell membrane [28]) was “Active”, the Activity (Cell membrane [29]) was “Active” and the Activity (Acinetobacter baumannii [30]) was 66.3%. The Activity (Escherichia coli [31]) was “Active”.
